# Laboratory results taken from patent US20160311831A1, “Imidazotriazinones as PDE1 Inhibitors” (H. Lundbeck A/S, priority 2015, published 2016).
# Experiments:
# Assay type in all cases: biochemical
# [1] = molecular target: PDE1A (Homo sapiens, UniProt P54750); test: PDE1 inhibition assay (PDE1A), SPA with tritium labelled cAMP; conditions: 15 nM tritium labelled cAMP, 1 hr at room temperature
# Protocol: (§1) PDE1A, PDE1B and PDE1C assays were performed as follows: the assays was performed in 60 μL samples containing a fixed amount of the PDE1 enzym1 (sufficient to convert 20-25% of the cyclic nucleotide substrate), a buffer (50 mM HEPES pH 7.6; 10 mM MgCl2; 0.02% Tween20), 0.1 mg/mL BSA, 15 nM tritium labelled cAMP and varying amounts of inhibitors. Reactions were initiated by addition of the cyclic nucleotide substrate, and reactions were allowed to proceed for 1 hr at room temperature before being terminated through mixing with 20 μL (0.2 mg) yttrium silicate SPA beads (PerkinElmer). The beads were allowed to settle for 1 hr in the dark before the plates were counted in a Wallac 1450 Microbeta counter. The measured signals were converted to activity relative to an uninhibited control (100%) and IC50 values were calculated using XIFit (model 205, IDBS).
# [2] = molecular target: PDE1B (Homo sapiens, UniProt Q01064); test: PDE1 inhibition assay (PDE1B), SPA with tritium labelled cAMP; conditions: 15 nM tritium labelled cAMP, 1 hr at room temperature
# Protocol: as §1
# [3] = molecular target: PDE1C (Homo sapiens, UniProt Q14123); test: PDE1 inhibition assay (PDE1C), SPA with tritium labelled cAMP; conditions: 15 nM tritium labelled cAMP, 1 hr at room temperature
# Protocol: as §1
# [4] = molecular target: PDE9 (Homo sapiens, UniProt O76083); test: PDE9 inhibition assay, SPA with 3H-cAMP; conditions: compound at 10 microM; 10 nM 3H-cAMP, 1 hr incubation
# Protocol: A PDE9 assay may for example, be performed as follows: The assay is performed in 60 μL samples containing a fixed amount of the relevant PDE enzyme (sufficient to convert 20-25% of the cyclic nucleotide substrate), a buffer (50 mM HEPES7.6; 10 mM MgCl2; 0.02% Tween20), 0.1 mg/mL BSA, 225 pCi of ^3H-labelled cyclic nucleotide substrate, tritium labeled cAMP to a final concentration of 5 nM and varying amounts of inhibitors. Reactions are initiated by addition of the cyclic nucleotide substrate, and reactions are allowed to proceed for one hr at room temperature before being terminated through mixing with 15 μL 8 mg/mL yttrium silicate SPA beads (Amersham). The beads are allowed to settle for one hr in the dark before the plates are counted in a Wallac 1450 Microbeta counter. The measured signal can be converted to activity relative to an uninhibited control (100%) and IC50 values can be calculated using the Xlfit extension to EXCEL.
# In the context of the present invention the assay was performed in 60 uL assay buffer (50 mM HEPES pH 7.6; 10 mM MgCl2; 0.02% Tween20) containing enough PDE9 to convert 20-25% of 10 nM ^3H-cAMP and varying amounts of inhibitors. Following a 1 hr incubation the reactions were terminated by addition of 15 uL 8 mg/mL yttrium silicate SPA beads (Amersham). The beads were allowed to settle for one hr in the dark before the plates were counted in a Wallac 1450 Microbeta counter.
# PDE1A, sequence (P54750 whole entry): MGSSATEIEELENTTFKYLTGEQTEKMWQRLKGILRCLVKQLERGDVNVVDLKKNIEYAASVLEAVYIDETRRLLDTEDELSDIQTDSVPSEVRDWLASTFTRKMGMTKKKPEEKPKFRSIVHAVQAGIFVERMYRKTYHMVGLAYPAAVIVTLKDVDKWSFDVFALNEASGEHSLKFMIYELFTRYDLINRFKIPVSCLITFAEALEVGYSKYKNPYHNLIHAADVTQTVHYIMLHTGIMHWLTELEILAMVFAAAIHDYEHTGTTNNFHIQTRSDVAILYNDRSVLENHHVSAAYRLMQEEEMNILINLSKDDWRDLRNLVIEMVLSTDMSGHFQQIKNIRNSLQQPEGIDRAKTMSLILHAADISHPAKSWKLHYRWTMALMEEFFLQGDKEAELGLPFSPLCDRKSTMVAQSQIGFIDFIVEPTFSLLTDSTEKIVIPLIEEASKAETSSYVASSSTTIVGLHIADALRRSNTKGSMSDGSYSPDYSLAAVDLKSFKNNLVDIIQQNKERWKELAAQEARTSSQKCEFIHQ
# PDE9, sequence (O76083 whole entry): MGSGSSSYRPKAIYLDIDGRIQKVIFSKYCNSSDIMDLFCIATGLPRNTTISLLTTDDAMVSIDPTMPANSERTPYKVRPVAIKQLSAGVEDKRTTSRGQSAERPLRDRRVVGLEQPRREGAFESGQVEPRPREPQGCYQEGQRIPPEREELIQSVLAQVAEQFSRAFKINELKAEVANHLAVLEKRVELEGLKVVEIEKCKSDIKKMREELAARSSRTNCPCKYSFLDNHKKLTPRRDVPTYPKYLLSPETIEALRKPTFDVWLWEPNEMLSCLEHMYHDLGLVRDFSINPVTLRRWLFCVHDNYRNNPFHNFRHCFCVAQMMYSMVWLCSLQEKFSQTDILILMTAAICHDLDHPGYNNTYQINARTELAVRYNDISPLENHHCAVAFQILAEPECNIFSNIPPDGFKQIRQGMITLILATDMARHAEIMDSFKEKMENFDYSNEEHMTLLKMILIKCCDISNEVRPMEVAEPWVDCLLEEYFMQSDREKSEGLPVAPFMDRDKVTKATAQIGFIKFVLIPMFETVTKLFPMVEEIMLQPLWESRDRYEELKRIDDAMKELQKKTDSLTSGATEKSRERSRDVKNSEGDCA
# PDE1B, sequence (Q01064 whole entry): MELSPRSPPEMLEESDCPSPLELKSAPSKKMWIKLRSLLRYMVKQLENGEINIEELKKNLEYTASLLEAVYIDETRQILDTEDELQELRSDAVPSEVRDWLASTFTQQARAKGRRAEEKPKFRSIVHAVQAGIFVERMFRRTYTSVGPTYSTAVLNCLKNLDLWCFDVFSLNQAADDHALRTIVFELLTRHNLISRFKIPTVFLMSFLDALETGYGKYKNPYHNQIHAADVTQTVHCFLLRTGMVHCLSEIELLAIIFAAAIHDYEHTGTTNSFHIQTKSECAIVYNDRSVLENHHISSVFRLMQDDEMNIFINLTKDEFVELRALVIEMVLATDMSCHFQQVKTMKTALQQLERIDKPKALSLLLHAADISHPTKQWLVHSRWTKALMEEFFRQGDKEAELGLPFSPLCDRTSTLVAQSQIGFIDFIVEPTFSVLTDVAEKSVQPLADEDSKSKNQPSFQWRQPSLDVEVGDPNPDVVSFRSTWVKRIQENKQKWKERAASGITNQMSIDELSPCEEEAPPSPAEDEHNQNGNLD
# PDE1C, sequence (Q14123 whole entry): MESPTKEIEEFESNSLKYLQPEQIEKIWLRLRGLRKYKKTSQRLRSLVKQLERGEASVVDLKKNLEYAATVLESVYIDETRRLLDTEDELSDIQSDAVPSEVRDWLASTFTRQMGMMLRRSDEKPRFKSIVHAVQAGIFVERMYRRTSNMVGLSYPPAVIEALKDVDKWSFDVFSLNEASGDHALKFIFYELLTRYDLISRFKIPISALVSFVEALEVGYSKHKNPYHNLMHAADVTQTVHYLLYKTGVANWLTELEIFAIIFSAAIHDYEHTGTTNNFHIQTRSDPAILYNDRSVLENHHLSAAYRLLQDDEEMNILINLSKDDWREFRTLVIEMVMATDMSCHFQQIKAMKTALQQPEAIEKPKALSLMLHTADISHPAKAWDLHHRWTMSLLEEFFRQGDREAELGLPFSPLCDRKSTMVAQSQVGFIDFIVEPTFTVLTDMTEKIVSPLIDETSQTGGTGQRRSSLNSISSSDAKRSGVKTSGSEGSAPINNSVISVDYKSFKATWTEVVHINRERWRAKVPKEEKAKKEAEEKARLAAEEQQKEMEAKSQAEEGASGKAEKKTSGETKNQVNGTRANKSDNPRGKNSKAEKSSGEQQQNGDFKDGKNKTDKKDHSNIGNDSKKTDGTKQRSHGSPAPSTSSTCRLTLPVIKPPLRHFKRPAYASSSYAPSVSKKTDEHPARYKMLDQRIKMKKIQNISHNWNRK
Structure (SMILES),IC50 [1] [nM],IC50 [2] [nM],IC50 [3] [nM],inhibition at 10 µM [4] [%],% inhibition of PDE9 at 10 microM [4] [%]
"Cc1ccc(Cc2nn3c(C4CCOCC4)ncc3c(=O)n2C)cc1 [Example 2, 3-Methyl-2-(4-methylbenzyl)-7-(tetrahydro-2H-pyran-4-yl)imidazo[5,1-f][1,2,4]triazin-4(3H)-one]",732,258,984,4,–
"CCCn1c(Cc2ccc(C)cc2)nn2c(C3CCOCC3)ncc2c1=O [Example 4, 2-(4-Methylbenzyl)-3-propyl-7-(tetrahydro-2H-pyran-4-yl)imidazo[5,1-f][1,2,4]triazin-4(3H)-one]",83,40,61,9,–
"Cc1ccc(Cc2nn3c(C4CCOCC4)ncc3c(=O)n2CC2CCOC2)cc1 (single isomer, unassigned) [12 Stereoisomer 1]",–,258,105,–,3
"Cc1ccc(Cc2nn3c(C4CCOCC4)ncc3c(=O)n2CC2CCOC2)cc1 (single isomer, unassigned) [12 Stereoisomer 2]",100,67,151,–,7
"O=c1c2cnc(C3CCOCC3)n2ncn1Cc1cccc(F)c1 [Example 27, 3-(3-Fluorobenzyl)-7-(tetrahydro-2H-pyran-4-yl)imidazo[5,1-f][1,2,4]triazin-4(3H)-one]",–,–,436,17,–
"Cc1nn2c(C3CCOCC3)ncc2c(=O)n1Cc1ccc(F)cc1 [Example 14, 3-(4-Fluorobenzyl)-2-methyl-7-(tetrahydro-2H-pyran-4-yl)imidazo[5,1-f][1,2,4]triazin-4(3H)-one]",77,134,35,18,–
"Cc1nn2c(C3CCOCC3)ncc2c(=O)n1Cc1cccc(F)c1 [Example 13, 3-(3-Fluorobenzyl)-2-methyl-7-(tetrahydro-2H-pyran-4-yl)imidazo[5,1-f][1,2,4]triazin-4(3H)-one]",127,258,29,-4,–
"Cc1ccc(Cc2nn3c(C4CCOCC4)ncc3c(=O)n2CC2CCC2)cc1 [Example 10, 3-(Cyclobutylmethyl)-2-(4-methylbenzyl)-7-(tetrahydro-2H-pyran-4-yl)imidazo[5,1-f][1,2,4]triazin-4(3H)-one]",245,103,62,-11,–
"O=c1c2cnc(C3CCOCC3)n2ncn1CC1CCCC1 [Example 28, 3-(Cyclopentylmethyl)-7-(tetrahydro-2H-pyran-4-yl)imidazo[5,1-f][1,2,4]triazin-4(3H)-one]",–,–,86,10,–
"O=c1c2cnc(C3CCOCC3)n2ncn1CC1CCCCCC1 [Example 29, 3-(Cycloheptylmethyl)-7-(tetrahydro-2H-pyran-4-yl)imidazo[5,1-f][1,2,4]triazin-4(3H)-one]",33,52,25,21,–
"COc1cccc(Cn2c(C)nn3c(C4CCOCC4)ncc3c2=O)c1 [Example 19, 3-(3-Methoxybenzyl)-2-methyl-7-(tetrahydro-2H-pyran-4-yl)imidazo[5,1-f][1,2,4]triazin-4(3H)-one]",115,259,52,4,–
"Cc1ccc(Cc2nn3c(C4CCOCC4)ncc3c(=O)n2CC2CCC(C)CC2)cc1 (single isomer, unassigned) [11 Stereoisomer 1]",43,33,69,–,−9
"Cc1ccc(Cc2nn3c(C4CCOCC4)ncc3c(=O)n2CC2CCOCC2)cc1 [Example 9, 2-(4-Methylbenzyl)-7-(tetrahydro-2H-pyran-4-yl)-3-((tetrahydro-2H-pyran-4-yl)methyl)imidazo[5,1-f][1,2,4]triazin-4(3H)-one]",583,364,23,12,–
"O=c1c2cnc(C3CCOCC3)n2ncn1CC1CCCCC1 [Example 26, 3-(Cyclohexylmethyl)-7-(tetrahydro-2H-pyran-4-yl)imidazo[5,1-f][1,2,4]triazin-4(3H)-one]",554,376,103,8,–
"Cc1ccc(Cc2nn3c(C4CCOCC4)ncc3c(=O)n2CC2CC2)cc1 [Example 8, 3-(Cyclopropylmethyl)-2-(4-methylbenzyl)-7-(tetrahydro-2H-pyran-4-yl)imidazo[5,1-f][1,2,4]triazin-4(3H)-one]",63,103,78,9,–
"Cc1ccccc1Cn1c(C)nn2c(C3CCOCC3)ncc2c1=O [Example 21, 2-Methyl-3-(2-methylbenzyl)-7-(tetrahydro-2H-pyran-4-yl)imidazo[5,1-f][1,2,4]triazin-4(3H)-one]",367,454,37,13,–

# Compounds with a lower IC50 [3], results first:
IC50 [1] [nM],IC50 [2] [nM],IC50 [3] [nM],inhibition at 10 µM [4] [%],% inhibition of PDE9 at 10 microM [4] [%],Structure (SMILES)
29,63,4,2,–,"Cc1ccc(Cc2nn3c(C4CCOCC4)ncc3c(=O)n2CC2CCCC2)cc1 [Example 6, 3-(Cyclopentylmethyl)-2-(4-methylbenzyl)-7-(tetrahydro-2H-pyran-4-yl)imidazo[5,1-f][1,2,4]triazin-4(3H)-one]"
52,131,15,8,–,"CCc1nn2c(C3CCOCC3)ncc2c(=O)n1Cc1cccc(F)c1 [Example 25, 2-Ethyl-3-(3-fluorobenzyl)-7-(tetrahydro-2H-pyran-4-yl)imidazo[5,1-f][1,2,4]triazin-4(3H)-one]"
54,139,15,21,–,"Cc1nn2c(C3CCOCC3)ncc2c(=O)n1Cc1ccccc1F [Example 20, 3-(2-Fluorobenzyl)-2-methyl-7-(tetrahydro-2H-pyran-4-yl)imidazo[5,1-f][1,2,4]triazin-4(3H)-one]"
8,10,5,–,15,"Cc1ccc(Cc2nn3c(C4CCOCC4)ncc3c(=O)n2CC2CCC(C)CC2)cc1 (single isomer, unassigned) [11 Stereoisomer 2]"
29,26,21,-4,–,"COc1ccc(Cn2c(C)nn3c(C4CCOCC4)ncc3c2=O)cc1 [Example 23, 3-(4-Methoxybenzyl)-2-methyl-7-(tetrahydro-2H-pyran-4-yl)imidazo[5,1-f][1,2,4]triazin-4(3H)-one]"
63,159,14,5,–,"Cc1nn2c(C3CCOCC3)ncc2c(=O)n1Cc1cccc(Cl)c1 [Example 17, 3-(3-Chlorobenzyl)-2-methyl-7-(tetrahydro-2H-pyran-4-yl)imidazo[5,1-f][1,2,4]triazin-4(3H)-one]"
15,30,9,26,–,"Cc1nn2c(C3CCOCC3)ncc2c(=O)n1CC1CCCCC1 [Example 1, 3-(Cyclohexylmethyl)-2-methyl-7-(tetrahydro-2H-pyran-4-yl)imidazo[5,1-f][1,2,4]triazin-4(3H)-one]"
265,188,20,-30,–,"Cc1cccc(Cn2c(C)nn3c(C4CCOCC4)ncc3c2=O)c1 [Example 18, 2-Methyl-3-(3-methylbenzyl)-7-(tetrahydro-2H-pyran-4-yl)imidazo[5,1-f][1,2,4]triazin-4(3H)-one]"
40,26,11,11,–,"Cc1ccc(Cc2nn3c(C4CCOCC4)ncc3c(=O)n2CC2CCCCC2)cc1 [Example 7, 3-(Cyclohexylmethyl)-2-(4-methylbenzyl)-7-(tetrahydro-2H-pyran-4-yl)imidazo[5,1-f][1,2,4]triazin-4(3H)-one]"
118,220,20,11,–,"Cc1nn2c(C3CCOCC3)ncc2c(=O)n1Cc1ccccc1Cl [Example 16, 3-(2-Chlorobenzyl)-2-methyl-7-(tetrahydro-2H-pyran-4-yl)imidazo[5,1-f][1,2,4]triazin-4(3H)-one]"
